Assay results from US10849867B2, “Methods and compositions for treating conditions associated with an abnormal inflammatory response” (First Wave Bio, Inc., priority 2015, dated 2020).

How the values were obtained:
[1] = test system: TNBS model of ulcerative colitis; test: Murine TNBS model of ulcerative colitis, rectal versus intraperitoneal (FIG. 2); format: in vivo
Jurkat T cells = test: Mitochondrial transmembrane potential (ΔΨm) in Jurkat T cells, TMRM flow cytometry with oligomycin (Example 1); format: cell-based; settings: relative to negative controls
Text: Objective. […] Model. The Jurkat T cell model is commonly used to study the potential effects of compounds on T cells in vitro. This cell line allows investigation of stimuli and mechanisms that regulate T cell mitochondrial function and survival. As T cells, Jurkats have a lymphocyte appearance and replicate in culture in suspension. They contain respiring mitochondria and as such response to mitochondrial uncouplers such as niclosamide may be assessed. Uncoupling is identified and quantified by a detecting a drop in the electrochemical gradient across the mitochondrial inner membrane (ΔΨm) that is not associated with a corresponding increase in oxidative phosphorylation. […] Cell culture. Jurkat T cells were purchased from the American Type Culture Collection (Manassas, Va.) and sub-cultured according to instructions from the supplier. Prior to experiments, cells were cultured in RPMI 1640 containing 10% FBS-HI, 50 units penicillin/mL and 50 μg streptomycin/mL, and maintained in log phase prior to experimental setup. […] TMRM has been described as one of the best fluorescent dyes for dynamic and in situ quantitative measurements because it is rapidly and reversibly taken up by live cells and mitochondria. […] Ratios of the fluorescence intensity of each treated sample to the control sample mean were then calculated as a measure of relative decrease in ΔΨm. […]

human LPMCs T cells = test: ΔΨm in human LPMC CD45+CD3+ T cells, JC-1 flow cytometry (Example 12); format: cell-based; settings: 5 μM, 60 min, JC-1, relative to negative control
Text: The Model-Lamina propria mononuclear cells (LPMC) in the human intestine are comprised in part by T cells which mediate physiological and pathological processes including inflammatory bowel disease. LPMCs can be isolated from human tissue biopsies. After isolation […] cells remain viable ex vivo under appropriate culture conditions for periods of time that allow ex vivo experiments. These cells can be used to investigate mechanisms that regulate their mitochondrial function and survival They contain respiring mitochondria and as such their response to test agents may be assessed. Uncoupling is identified and quantified by a detecting a drop in the electrochemical gradient across the mitochondrial inner membrane (ΔΨm). […] The isolated cells were counted and checked for viability using 0.1% trypan blue (viability ranged from 86% to 94%). […] A flow cytometer FACSVerse flow cytometer and FACSSuite software [BD Biosciences] was used for quantification of JC-1 fluorescence in CD45+CD3+ cells. […] Consequently, mitochondrial depolarization is indicated by a decrease in the red/green fluorescence intensity ratio. […] LPMC CD45+CD3+ T cells were first defined by their fluorescence emission from labeling with eFluor® 450-anti-CD3 antibody and PerCP-Cyanine5.5-[…] antibody. The fluorescence intensity of JC-1 detected at 525 nm and 590 nm in the CD45+CD3+ T cell population was then measured. […]

SMILES: O=C(Nc1ccc([N+](=O)[O-])cc1Cl)c1cc(Cl)ccc1O [Niclosamide, 5-chloro-N-(2-chloro-4-nitrophenyl)-2-hydroxybenzamide]
- efficacy in murine TNBS model of ulcerative colitis ([1]; administered rectally (locally)): robust efficacy
- efficacy in murine TNBS model of ulcerative colitis ([1]; intraperitoneal injection (systemically)): not by intraperitoneal injection
- change in ΔΨm in Jurkat cells (Jurkat T cells; 1-500 μM, 60 minutes, oligomycin present, TMRM): dose-related decrease
- concentrations of niclosamide that significantly decreased ΔΨm (p<0.05) (Jurkat T cells; Jurkat cells): ≥ 5 µM
- change in ΔΨm in human LPMCs T cells (human LPMCs T cells): decrease
